Reference: the supplement of paper PMC10307832

Tests used:
Experiment in all cases: relative viability (nuclei count vs DMSO), 5 days (fraction); higher = more cells survive
NCI-H838 = system: NCI-H838
Procedure, shortened: (§1)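 Relative viability divides the nuclei count in treated wells by that in vehicle wells. Lung cancer cell lines were seeded in 1536-well plates, dosed by pin tool the next day, and fixed and stained after 5 days in one step with final 0.05% Triton X-100, 1% formaldehyde and 1 ug/ml Hoechst. Dosing was a single drug or a fixed anchor-drug dose plus five library-drug doses (not always all listed) in √10 steps, and values are medians of duplicate plates imaged at 4×.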

PC-14 = system: PC-14
Procedure, shortened: as §1

HCC-15 = system: HCC-15
Procedure, shortened: as §1

NCI-H650 = system: NCI-H650
Procedure, shortened: as §1

NCI-H2126 = system: NCI-H2126
Procedure, shortened: as §1

NCI-H1993 = system: NCI-H1993
Procedure, shortened: as §1

NCI-H358 = system: NCI-H358
Procedure, shortened: as §1

NCI-H1915 = system: NCI-H1915
Procedure, shortened: as §1

LU99A = system: LU99A
Procedure, shortened: as §1

HARA = system: HARA
Procedure, shortened: as §1

NCI-H2347 = system: NCI-H2347
Procedure, shortened: as §1

COR-L23 = system: COR-L23
Procedure, shortened: as §1

NCI-H1355 = system: NCI-H1355
Procedure, shortened: as §1

LC-2-ad = system: LC-2-ad
Procedure, shortened: as §1

HOP-62 = system: HOP-62
Procedure, shortened: as §1

NCI-H2085 = system: NCI-H2085
Procedure, shortened: as §1

UMC-11 = system: UMC-11
Procedure, shortened: as §1

SW 1573 = system: SW 1573
Procedure, shortened: as §1

HCC-44 = system: HCC-44
Procedure, shortened: as §1

NCI-H2023 = system: NCI-H2023
Procedure, shortened: as §1

NCI-H1651 = system: NCI-H1651
Procedure, shortened: as §1

ABC-1 = system: ABC-1
Procedure, shortened: as §1

EPLC-272H = system: EPLC-272H
Procedure, shortened: as §1

Question: `CCN(CC)CCCCNc1ncc2cc(-c3cc(OC)cc(OC)c3)c(NC(=O)NC(C)(C)C)nc2n1` + COc1cccc2cc(-c3nc([C@H]4CC[C@H](C(=O)O)CC4)n4ncnc(N)c34)[nH]c12 [OSI-027] (partner 0.5 µM) was tested. Which relative viability (NCI-H838; first compound 0.01 µM) did it give?
Answer: 0.373

Question: What about the relative viability (NCI-H838; first compound 0.03162 µM) of the same molecule?
Answer: 0.39

Question: What about the relative viability (NCI-H838; first compound 0.1 µM) of the same molecule?
Answer: 0.449

Question: What about the relative viability (NCI-H838; first compound 0.3162 µM) of the same molecule?
Answer: 0.377

Question: And the relative viability (NCI-H838; first compound 1 µM)?
Answer: 0.273

Question: What about the relative viability (PC-14; first compound 0.01 µM) of the same molecule?
Answer: 0.838

Question: And the relative viability (PC-14; first compound 0.03162 µM)?
Answer: 1.04

Question: And the relative viability (PC-14; first compound 0.1 µM)?
Answer: 1.12

Question: What about the relative viability (PC-14; first compound 0.3162 µM) of the same molecule?
Answer: 0.974

Question: And the relative viability (PC-14; first compound 1 µM)?
Answer: 0.91

Question: And the relative viability (HCC-15; first compound 0.01 µM)?
Answer: 0.662

Question: And the relative viability (HCC-15; first compound 0.03162 µM)?
Answer: 0.673

Question: And the relative viability (HCC-15; first compound 0.1 µM)?
Answer: 0.717

Question: What about the relative viability (HCC-15; first compound 0.3162 µM) of the same molecule?
Answer: 0.936

Question: And the relative viability (HCC-15; first compound 1 µM)?
Answer: 0.577

Question: What about the relative viability (NCI-H650; first compound 0.01 µM) of the same molecule?
Answer: 0.46

Question: What about the relative viability (NCI-H650; first compound 0.03162 µM) of the same molecule?
Answer: 0.551

Question: What about the relative viability (NCI-H650; first compound 0.1 µM) of the same molecule?
Answer: 0.589

Question: What about the relative viability (NCI-H650; first compound 0.3162 µM) of the same molecule?
Answer: 0.605

Question: And the relative viability (NCI-H650; first compound 1 µM)?
Answer: 0.507

Question: And the relative viability (NCI-H2126; first compound 0.01 µM)?
Answer: 0.583

Question: And the relative viability (NCI-H2126; first compound 0.03162 µM)?
Answer: 0.768

Question: And the relative viability (NCI-H2126; first compound 0.1 µM)?
Answer: 0.704

Question: And the relative viability (NCI-H2126; first compound 0.3162 µM)?
Answer: 0.756

Question: And the relative viability (NCI-H2126; first compound 1 µM)?
Answer: 0.707

Question: What about the relative viability (NCI-H1993; first compound 0.01 µM) of the same molecule?
Answer: 0.259

Question: What about the relative viability (NCI-H1993; first compound 0.03162 µM) of the same molecule?
Answer: 0.559

Question: And the relative viability (NCI-H1993; first compound 0.1 µM)?
Answer: 0.532

Question: And the relative viability (NCI-H1993; first compound 0.3162 µM)?
Answer: 0.604

Question: What about the relative viability (NCI-H1993; first compound 1 µM) of the same molecule?
Answer: 0.535

Question: And the relative viability (NCI-H358; first compound 0.01 µM)?
Answer: 0.791

Question: What about the relative viability (NCI-H358; first compound 0.03162 µM) of the same molecule?
Answer: 0.803

Question: And the relative viability (NCI-H358; first compound 0.1 µM)?
Answer: 1.12

Question: What about the relative viability (NCI-H358; first compound 0.3162 µM) of the same molecule?
Answer: 0.996

Question: What about the relative viability (NCI-H358; first compound 1 µM) of the same molecule?
Answer: 0.694

Question: What about the relative viability (NCI-H1915; first compound 0.01 µM) of the same molecule?
Answer: 0.377

Question: What about the relative viability (NCI-H1915; first compound 0.03162 µM) of the same molecule?
Answer: 0.645

Question: And the relative viability (NCI-H1915; first compound 0.1 µM)?
Answer: 0.775

Question: What about the relative viability (NCI-H1915; first compound 0.3162 µM) of the same molecule?
Answer: 0.721

Question: And the relative viability (NCI-H1915; first compound 1 µM)?
Answer: 0.643

Question: What about the relative viability (LU99A; first compound 0.01 µM) of the same molecule?
Answer: 0.292

Question: What about the relative viability (LU99A; first compound 0.03162 µM) of the same molecule?
Answer: 0.259

Question: What about the relative viability (LU99A; first compound 0.1 µM) of the same molecule?
Answer: 0.309

Question: And the relative viability (LU99A; first compound 0.3162 µM)?
Answer: 0.291

Question: And the relative viability (LU99A; first compound 1 µM)?
Answer: 0.302

Question: And the relative viability (HARA; first compound 0.01 µM)?
Answer: 0.522

Question: What about the relative viability (HARA; first compound 0.03162 µM) of the same molecule?
Answer: 0.647

Question: And the relative viability (HARA; first compound 0.1 µM)?
Answer: 0.429

Question: What about the relative viability (HARA; first compound 0.3162 µM) of the same molecule?
Answer: 0.697

Question: And the relative viability (HARA; first compound 1 µM)?
Answer: 0.446

Question: What about the relative viability (NCI-H2347; first compound 0.01 µM) of the same molecule?
Answer: 0.419

Question: What about the relative viability (NCI-H2347; first compound 0.03162 µM) of the same molecule?
Answer: 0.38

Question: What about the relative viability (NCI-H2347; first compound 0.1 µM) of the same molecule?
Answer: 0.408

Question: What about the relative viability (NCI-H2347; first compound 0.3162 µM) of the same molecule?
Answer: 0.381

Question: What about the relative viability (NCI-H2347; first compound 1 µM) of the same molecule?
Answer: 0.358

Question: What about the relative viability (COR-L23; first compound 0.01 µM) of the same molecule?
Answer: 1.19

Question: What about the relative viability (COR-L23; first compound 0.03162 µM) of the same molecule?
Answer: 0.873

Question: And the relative viability (COR-L23; first compound 0.1 µM)?
Answer: 1.06

Question: What about the relative viability (COR-L23; first compound 0.3162 µM) of the same molecule?
Answer: 1.07

Question: What about the relative viability (COR-L23; first compound 1 µM) of the same molecule?
Answer: 0.503

Question: What about the relative viability (NCI-H1355; first compound 0.01 µM) of the same molecule?
Answer: 0.405

Question: And the relative viability (NCI-H1355; first compound 0.03162 µM)?
Answer: 0.404

Question: What about the relative viability (NCI-H1355; first compound 0.1 µM) of the same molecule?
Answer: 0.417

Question: What about the relative viability (NCI-H1355; first compound 0.3162 µM) of the same molecule?
Answer: 0.45

Question: And the relative viability (NCI-H1355; first compound 1 µM)?
Answer: 0.367

Question: And the relative viability (LC-2-ad; first compound 0.01 µM)?
Answer: 0.776

Question: What about the relative viability (LC-2-ad; first compound 0.03162 µM) of the same molecule?
Answer: 1.05

Question: What about the relative viability (LC-2-ad; first compound 0.1 µM) of the same molecule?
Answer: 0.909

Question: And the relative viability (LC-2-ad; first compound 0.3162 µM)?
Answer: 0.854

Question: And the relative viability (LC-2-ad; first compound 1 µM)?
Answer: 0.75

Question: What about the relative viability (HOP-62; first compound 0.01 µM) of the same molecule?
Answer: 0.89

Question: What about the relative viability (HOP-62; first compound 0.03162 µM) of the same molecule?
Answer: 0.873

Question: What about the relative viability (HOP-62; first compound 0.1 µM) of the same molecule?
Answer: 1.12

Question: And the relative viability (HOP-62; first compound 0.3162 µM)?
Answer: 1.11

Question: What about the relative viability (HOP-62; first compound 1 µM) of the same molecule?
Answer: 0.771

Question: What about the relative viability (NCI-H2085; first compound 0.01 µM) of the same molecule?
Answer: 0.71

Question: What about the relative viability (NCI-H2085; first compound 0.03162 µM) of the same molecule?
Answer: 0.759

Question: And the relative viability (NCI-H2085; first compound 0.1 µM)?
Answer: 0.867

Question: And the relative viability (NCI-H2085; first compound 0.3162 µM)?
Answer: 0.803

Question: And the relative viability (NCI-H2085; first compound 1 µM)?
Answer: 0.725

Question: And the relative viability (UMC-11; first compound 0.01 µM)?
Answer: 0.508

Question: What about the relative viability (UMC-11; first compound 0.03162 µM) of the same molecule?
Answer: 0.473

Question: What about the relative viability (UMC-11; first compound 0.1 µM) of the same molecule?
Answer: 0.481

Question: What about the relative viability (UMC-11; first compound 0.3162 µM) of the same molecule?
Answer: 0.485

Question: What about the relative viability (UMC-11; first compound 1 µM) of the same molecule?
Answer: 0.443

Question: And the relative viability (SW 1573; first compound 0.01 µM)?
Answer: 0.578

Question: What about the relative viability (SW 1573; first compound 0.03162 µM) of the same molecule?
Answer: 0.693

Question: What about the relative viability (SW 1573; first compound 0.1 µM) of the same molecule?
Answer: 0.839

Question: And the relative viability (SW 1573; first compound 0.3162 µM)?
Answer: 0.691

Question: What about the relative viability (SW 1573; first compound 1 µM) of the same molecule?
Answer: 0.629

Question: What about the relative viability (HCC-44; first compound 0.01 µM) of the same molecule?
Answer: 0.436

Question: What about the relative viability (HCC-44; first compound 0.03162 µM) of the same molecule?
Answer: 0.587

Question: And the relative viability (HCC-44; first compound 0.1 µM)?
Answer: 0.573

Question: What about the relative viability (HCC-44; first compound 0.3162 µM) of the same molecule?
Answer: 0.519

Question: And the relative viability (HCC-44; first compound 1 µM)?
Answer: 0.479

Question: And the relative viability (NCI-H2023; first compound 0.01 µM)?
Answer: 0.426

Question: What about the relative viability (NCI-H2023; first compound 0.03162 µM) of the same molecule?
Answer: 0.452

Question: And the relative viability (NCI-H2023; first compound 0.1 µM)?
Answer: 0.518

Question: What about the relative viability (NCI-H2023; first compound 0.3162 µM) of the same molecule?
Answer: 0.486

Question: And the relative viability (NCI-H2023; first compound 1 µM)?
Answer: 0.359

Question: And the relative viability (NCI-H1651; first compound 0.01 µM)?
Answer: 0.7

Question: What about the relative viability (NCI-H1651; first compound 0.03162 µM) of the same molecule?
Answer: 0.737

Question: What about the relative viability (NCI-H1651; first compound 0.1 µM) of the same molecule?
Answer: 0.782

Question: What about the relative viability (NCI-H1651; first compound 0.3162 µM) of the same molecule?
Answer: 0.79

Question: And the relative viability (NCI-H1651; first compound 1 µM)?
Answer: 0.695

Question: And the relative viability (ABC-1; first compound 0.01 µM)?
Answer: 0.433

Question: What about the relative viability (ABC-1; first compound 0.03162 µM) of the same molecule?
Answer: 0.389

Question: What about the relative viability (ABC-1; first compound 0.1 µM) of the same molecule?
Answer: 0.55

Question: And the relative viability (ABC-1; first compound 0.3162 µM)?
Answer: 0.499

Question: What about the relative viability (ABC-1; first compound 1 µM) of the same molecule?
Answer: 0.402

Question: And the relative viability (EPLC-272H; first compound 0.01 µM)?
Answer: 0.272

Question: What about the relative viability (EPLC-272H; first compound 0.03162 µM) of the same molecule?
Answer: 0.281

Question: And the relative viability (EPLC-272H; first compound 0.1 µM)?
Answer: 0.234

Question: And the relative viability (EPLC-272H; first compound 0.3162 µM)?
Answer: 0.28

Question: What about the relative viability (EPLC-272H; first compound 1 µM) of the same molecule?
Answer: 0.301
